Test results published in patent US6413996B2, “Diaminocyclobutene-3,4-dione derivatives, their preparation and use” (Neurosearch A/S, priority 1998, dated 2002).

How the values were obtained:
normal erythrocytes = experiment: K+-flux estimated by measuring extracellular K+-concentration vs time; format: cell-based; conditions: 10 μM
Text: Deoxygenation induced permeability increases of sickle cells were estimated by measuring the extracellular K^+-concentration vs time. […] The K^+ flux from oxygenated sickle erythrocytes was 2-3 times higher than from normal erythrocytes and these fluxes was accelerated 4 - 8 times upon deoxygenation.

[1] = test system: chloride channels in homozygoteous sickle cell erythrocytes; experiment: Cl- conductance (GCl) in suspensions of sickle cell erythrocytes; format: cell-based; conditions: oxygenated as well as deoxygenated homozygoteous sickle cell erythrocytes
Text: (§1) The compounds of the present invention are potent blockers of chloride channels in normal as well as sickle cell erythrocytes.
(§2) All dose-response experiments were therefore performed by concomitant measurements of conductive netfluxes of Cl^− (JCl) and membrane potentials (Vm) in suspensions of erythrocytes (Bennekou, P. and Christophersen, P. (1986), Flux ratio of Valinomycin - Mediated K^+ Fluxes across the Human Red Cell Membrane in the presence of the Protronophore CCCP. J. Membrane Biol. 93, 221-227. ). The membrane Cl^−conductances (GCl) were calculated by the following equation (Hodgkin, A. L. and Huxley, A. F. (1952) The components of membrane conductance in the giant axon of Loligo. J. Physiol. Lond. 116, 449-472): [formula]
(§3) where F is the Faraday constant, ECl is the Nernst potential for the Cl-ion.

[2] = test system: chloride channels in normal erythrocytes; experiment: Cl- conductance (GCl) from concomitant measurement of conductive Cl- netfluxes and membrane potentials in erythrocyte suspensions; format: cell-based, human; conditions: suspension of normal erythrocytes
Text: as §1, §2, §3

[3] = test system: osteoclast bone resorbtion; conditions: in vitro (Ohba et al, 1996); cited from earlier work
[4] = test system: vacuolar-type proton pump; conditions: cited from earlier work
bone degration = conditions: in vivo, growing young rats (Keeling et al, 1997); cited from earlier work

Compound: O=C(Nc1cccc(C(F)(F)F)c1)Nc1ccccc1C(=O)O [3-Trifluoromethylphenyl-2-carboxyphenyl urea]
- sensitivity of K+-fluxes to compound (normal erythrocytes): insensitive
- block of GCl from sickle cell erythrocytes [1]: equipotently blocked
- block of GCl [2]: more than 95%
- Kd ([2]; read-out: KD-value for block of GCl): 1300 nM

Compound: CC(=O)Nc1nnc(S(N)(=O)=O)s1 [acetacolamide]
- effect on bone resorbtion in pit formation assay [3]: effective

Compound: CO/C1=C\C(C)=C\[C@@H](C)[C@@H](O)[C@@H](C)C/C(C)=C/C=C/[C@H](OC)[C@@H]([C@@H](C)[C@@H](O)[C@H](C)[C@@]2(O)C[C@@H](O)[C@H](C)[C@@H](C(C)C)O2)OC1=O [bafilomycin A1]
- effect on bone resorbtion in pit formation assay [3]: completely eliminates bone resorbtion
- block of the proton pump [4]: extremely potent, reversible inhibitor
- effect on bone degration (bone degration): depresses bone degration

Compound: COc1ccc2[nH]c([S+]([O-])Cc3ncc(C)c(OC)c3C)nc2c1 (stereo not drawn) [omeprazol]
- block of the proton pump [4]: ineffective
